Laboratory results taken from ChEMBL document CHEMBL3217737, “Discovery of a highly selective FLT3 kinase inhibitor from phenotypic cell viability profiling” (Medchemcomm, 2013).

Experiments:
MCF7 = assay: Cytotoxicity against human MCF7 cells assessed as cell viability at 1 uM after 24 hrs by WST1 assay; format: functional; settings: MCF7, 24 h, read-out: Activity
[1] = Cytotoxicity against rat L6 cells assessed as cell viability at 1 uM after 24 hrs by WST1 assay; format: cell-based; settings: read-out: Activity
MDA-MB-231 = assay: Cytotoxicity against human MDA-MB-231 cells assessed as cell viability at 1 uM after 24 hrs by WST1 assay; format: functional; settings: MDA-MB-231, 24 h, read-out: Activity
[2] = Cytotoxicity against human U87MG cells assessed as cell viability at 1 uM after 24 hrs by WST1 assay; format: functional, U-87MG ATCC; settings: U-87 MG, read-out: Activity
MV4-11 = assay: Cytotoxicity against human MV4-11 cells assessed as cell viability at 1 uM after 24 hrs by WST1 assay; format: functional; settings: MV4-11, 24 h, read-out: Activity
[3] = Cytotoxicity against mouse NIH/3T3 cells assessed as cell viability at 1 uM after 24 hrs by WST1 assay; format: cell-based, NIH3T3; settings: read-out: Activity

SMILES | viability at 1 µM (MCF7) | viability at 24 h, 1 µM [1] | viability at 1 µM (MDA-MB-231) | viability at 1 µM [2] | viability at 1 µM (MV4-11) | viability at 24 h, 1 µM [3]
COc1ccc(-c2n[nH]c3ncc(-c4ccccc4NCc4ccccc4)cc23)cc1 | 98% | 102% | 109% | 95% | 97% | 99%
CNc1ccccc1-c1cnc2[nH]nc(-c3ccc(OC)cc3)c2c1 | 101% | 109% | 114% | 100% | 86% | 106%
COc1ccc(-c2n[nH]c3ncc(-c4cc([N+](=O)[O-])ccc4N)cc23)cc1 | 102% | 92% | 114% | 97% | 92% | 99%
COc1ccc(-c2n[nH]c3ncc(-c4cc(Br)ccc4N)cc23)cc1 | 88% | 104% | 112% | 100% | 82% | 108%
COc1ccc(-c2n[nH]c3ncc(-c4c(N)cccc4[N+](=O)[O-])cc23)cc1 | 97% | 110% | 123% | 104% | 93% | 102%
Nc1cc(Cl)ccc1-c1cnc2[nH]nc(-c3ccccc3)c2c1 | 103% | 96% | 105% | 101% | 85% | 111%
COc1ccc(-c2n[nH]c3ncc(-c4ccccc4NC(=O)NCc4ccccc4)cc23)cc1 | 99% | 104% | 101% | 94% | 104% | 94%
COC(=O)c1cccc(N)c1-c1cnc2[nH]nc(-c3ccc(OC)cc3)c2c1 | 89% | 105% | 110% | 102% | 90% | 101%
COc1ccc(-c2n[nH]c3ncc(-c4cccc(F)c4N)cc23)cc1 | 100% | 100% | 109% | 94% | 82% | 108%
Cc1n[nH]c2ncc(-c3ccc(Cl)cc3N)cc12 | 102% | 102% | 107% | 99% | 91% | 103%
COc1ccc(-c2n[nH]c3ncc(-c4ccc(F)cc4N)cc23)cc1 | 97% | 104% | 95% | 94% | 94% | 104%
COc1ccc(-c2n[nH]c3ncc(-c4ccccc4N)cc23)cc1 | 102% | 108% | 101% | 94% | 89% | 94%
